Laboratory results from patent US20240208950A1, “COMPOSITIONS AND METHODS FOR TREATMENT OF CERVICAL AND OVARIAN CANCER” (SOUTH DAKOTA BOARD OF REGENTS, priority 2021, published 2024).

Key:
[1] = tested on: EMT markers and MMPs in SiHa cells; test: Western blot for EMT markers and MMPs, SiHa; format: cell-based, human; conditions: 24 hours
Description: In a further example, cell lysates and western blot analysis was conducted for EMT markers and MMPs. […] In this example, about 70% of confluent SiHa and CaSki were treated with ORM-Br ([…]) for 24 hours. Cell lysates were prepared, and western blot analysis were conducted for EMT markers and MMPs analysis. The effect of ORM-Br on protein levels of cell-cycle regulatory proteins (cyclin E1 and p27) in both CaSki and SiHa cell lines are shown.
The effect of Br-ORM on protein expression in cervical cancer cells were determined by Western blot analysis by using specific antibodies.
Epithelial mesenchymal transition (EMT) is the basic characteristic of cancer cells in which epithelial cells undergo morphologic and molecular changes that transform the cells to mesenchymal, highly metastatic (invasive and motile), and drug-resistant phenotypes. Thus, targeting EMT may reduce the invasive phenotypes of a cancer cell and have significant advantage to overcome drug resistance. It has been reported that β-catenin is involved in invasion and metastasis via inducing EMT in various tumor cells. The effect of Br-ORM treatment on various EMT markers in cervical cancer cells was evaluated. […] The effect of Br-ORM on expression of EMT markers in cervical cancer cells compared to untreated group by use of qPCR analysis was determined. […] Expression of E-cadherin in cervical cancer cells treated with Br-ORM (10 μM) for 18 hours was also determined by immunofluorescence and confocal microscopy. Images were captured under 60× magnification and representative images are presented (FIG. 14G).
FIG. 14. Br-ORM decreases migration, invasion and attenuates EMT in cervical cancer cells. Effect of Br-ORM on cell migration of cervical cancer cells as determined by agarose bead (FIG. 14A), scratch wound healing (FIG. 14B), and Boyden chamber assay (FIG. 14C). AB denotes agarose bead while MC denotes migratory cells. Arrows indicate the distance of cervical cancer (CaSki and SiHa) cells migration in control and Br-ORM treated groups (FIG. 14A(i)-(ii)). […] Closure of wound was determined and photographed using phase contrast microscopy. […] Bar graph represent the quantification of migrated CaSki cells of control and Br-ORM treated groups (FIG. 14C(ii)). […] Effect of Br-ORM treatment on invasion of CaSki cells as determined by a commercially available kit (BD Biosciences) as described in materials and methods. In brief, 24 hours post-treatment of Br-ORM, invaded cells were fixed, stained and counted. […] Bar graph represent the quantification of invaded CaSki cells of control and Br-ORM treated groups (FIG. 14D(ii)). […] Effect of Br-ORM on E-cadherin expression in cervical cancer cells as determined by confocal microscopy in control and Br-ORM treated cells after 18 hours.

[2] = tested on: ovarian cancer cell line A2780; test: MTT cell viable assay (cytotoxicity and anti-proliferation); format: cell-based; conditions: Homo sapiens
Description: A biological assay was performed to study the potency of ORM-analogs by observing their pharmaceutical effects on living tissue (in vitro) and the effects of these analogs of unknown potency were compared to the effects of the standard (ormeloxifene). An MTT cell viable assay was first conducted to measure the cytotoxicity and anti-proliferation activity of synthesized analogs (Table 2 and FIG. 2).

[3] = tested on: SiHa cells; test: Cell migration (agarose bead, scratch wound), SiHa; format: cell-based, human; conditions: 0 and 48 hours
Description: FIGS. 7B and 7D show the effect of ORM-Br on motility potential of CaSki cells (FIG. 7B) and SiHa cells (FIG. 7D) as predicted by agarose bead assay. The images shown in FIGS. 7A-7D represent the migratory cells (MC) in control and ORM-Br treated groups at 0 and 48 hours. In FIGS. 7B and 7D, AB means agarose beads. In FIGS. 7A-7D the images magnification were at 4.
Cell motility was performed by in vitro scratch wound assay. Briefly, cells were seeded in a 12-wells plate and after 80-90% confluency a standardized wound was made using a 200 μL micropipette tip. Cells were then treated with Br-ORM (10 μM) and photographed by phase contrast microscopy. […]
FIG. 14. […] Effect of Br-ORM on cell migration of cervical cancer cells as determined by agarose bead (FIG. 14A), scratch wound healing (FIG. 14B), and Boyden chamber assay (FIG. 14C). […] Closure of wound was determined and photographed using phase contrast microscopy. […] Bar graph represent the quantification of migrated CaSki cells of control and Br-ORM treated groups (FIG. 14C(ii)). […] Effect of Br-ORM treatment on invasion of CaSki cells as determined by a commercially available kit (BD Biosciences) as described in materials and methods. In brief, 24 hours post-treatment of Br-ORM, invaded cells were fixed, stained and counted. […] Bar graph represent the quantification of invaded CaSki cells of control and Br-ORM treated groups (FIG. 14D(ii)). […]

[4] = tested on: CaSki cells; test: Cell cycle analysis by flow cytometry, CaSki; format: cell-based, human; conditions: 10 and 15 μM
Description: (§1) The effect of Br-ORM on cell cycle analysis was performed by flow cytometry as has described in the art. In brief, approximately 70% confluent cervical cancer cells were treated with Br-ORM (10 and 20 μM) for 24 hours. The cells were trypsinized and washed twice with ice-cold PBS (1×). The cell pellets were resuspended in 50 μL of ice cold PBS (1×) and 450 μL of cold methanol. The cells were washed twice with ice cold PBS (1×), suspended in 500 μL PBS, and incubated with 500 μL RNase (20 μg/mL final concentration) at 37° C. for 1 hour. The cells were chilled over ice for 10 minutes and stained with propidium iodide (50 μg/mL final concentration) for 1 hour and analyzed by flow cytometry (BD Accuri C6; Becton Dickinson, Mountain View, CA, USA). Data was analyzed by using Modfit software.
(§2) To examine the effect on cell cycle distribution, cervical cancer cells were treated with Br-ORM (10 and 15 μM) and analyzed by flow cytometry (FIG. 13F(i)-(ii)).

[5] = tested on: SiHa cells; test: Cell cycle analysis by flow cytometry, SiHa; format: cell-based, human; conditions: 10 and 15 μM
Description: as §1, §2

COc1ccc2c(c1)OC(C)(C)C(c1ccc(Br)cc1)C2c1ccc(OCCN2CCCC2)cc1 (stereo not drawn) [ORM-Br]
EMT associated markers (N-cadherin, vimentin and snail) expression [1]: inhibits the EMT associated markers | expression of E-cadherin [1]: induced the expression of E-cadherin | expression of MMP2 and MMP9 [1]: inhibited the expression of MMP2 and MMP9 | EMT associated markers (N-cadherin, vimentin and snail) expression ([1]; listed as Br-ORM): marked inhibition | IC50 [2]: 11.2 µM | cell migration / motility [3]: inhibits the migration | cell migration / motility ([3]; listed as Br-ORM): dose dependent inhibition of migration abilities | cell cycle distribution [4]: arrested cell cycle progression of CaSki and SiHa cells at G1/S phase | cell cycle distribution [5]: arrested cell cycle progression of CaSki and SiHa cells at G1/S phase
